One data set addresses Urokinase-type plasminogen activator (Homo sapiens, UniProt P00749). In words: Inhibitory activity against Urokinase-type plasminogen activator.
As to `Nc1nc2ccccc2[nH]1`, it took 200 µM to reach half-maximal inhibition (IC50). `N=C(N)c1ccc(N)cc1` gave an IC50 of 7 µM. With `N=C(N)Nc1ccccc1` [PHENYLGUANIDINE], the IC50 worked out at 20 µM.

Test system in another data set: not listed separately
The data set is described as follows: Acid dissociation constant (pKa) of the compound. It is filed as physicochemical.
The compound `Nc1nc2ccccc2[nH]1` registered a pKa of 7.5. The same measure, in the same setting: under `Nc1nc2cc(O)ccc2[nH]1` stands 7.4; under `N=C(N)c1ccc(N)cc1`, 11.4; under `N=C(N)Nc1ccccc1` [PHENYLGUANIDINE], 10.9.

These data come from ChEMBL document CHEMBL1133467, “Identification of novel inhibitors of urokinase via NMR-based screening” (J Med Chem, 2000).
